Source: ChEMBL document CHEMBL1201862, “PubChem BioAssay data set” (2004)
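Assay format: 96-well plates, 48-hour exposure. GI50 is the concentration that inhibits growth by half.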 Active and inactive are the calls of the source. Rule as the data show it: active = GI50 up to about 1.1 µM and inactive = higher.

Columns and labels:
Experiment in all cases: NCI-60 cell line screen, 48 h
SK-MEL-28 = system: SK-MEL-28
OVCAR-4 = system: OVCAR-4
HT-29 = system: HT-29
UACC-62 = system: UACC-62
CAKI-1 = system: CAKI-1
SF-295 = system: SF-295
HCT-15 = system: HCT-15
SK-MEL-2 = system: SK-MEL-2
NCI-H522 = system: NCI-H522
DU-145 = system: DU-145
HCC 2998 = system: HCC 2998
SK-MEL-5 = system: SK-MEL-5
SNB-19 = system: SNB-19
EKVX = system: EKVX
NCI-H226 = system: NCI-H226
MDA-N = system: MDA-N
SNB-75 = system: SNB-75
Hs-578T = system: Hs-578T
IGROV-1 = system: IGROV-1
UACC-257 = system: UACC-257
Malme-3M = system: Malme-3M
A549 = system: A549
HL-60 = system: HL-60
ACHN = system: ACHN
OVCAR-8 = system: OVCAR-8
BT-549 = system: BT-549
SF-268 = system: SF-268
COLO 205 = system: COLO 205
SN12C = system: SN12C
CCRF-CEM = system: CCRF-CEM
M14 = system: M14
OVCAR-5 = system: OVCAR-5
786-0 = system: 786-0
LOX IMVI = system: LOX IMVI
HOP-92 = system: HOP-92
RPMI-8226 = system: RPMI-8226
HCT-116 = system: HCT-116
MDA-MB-231 = system: MDA-MB-231
SW-620 = system: SW-620
KM12 = system: KM12
HOP-62 = system: HOP-62
TK-10 = system: TK-10
MDA-MB-435 = system: MDA-MB-435
OVCAR-3 = system: OVCAR-3
NCI-H23 = system: NCI-H23
U-251 = system: U-251
PC-3 = system: PC-3
SR = system: SR
T47D = system: T47D
UO-31 = system: UO-31
SF-539 = system: SF-539
K562 = system: K562
SK-OV-3 = system: SK-OV-3
MOLT-4 = system: MOLT-4
NCI/ADR-RES = system: NCI/ADR-RES
MCF7 = system: MCF7
A498 = system: A498
NCI-H460 = system: NCI-H460
RXF 393 = system: RXF 393

For COc1ccc(P2(=S)Oc3ccc(C(c4ccccc4)(c4ccccc4)c4ccccc4)cc3O2)cc1 (stereo not given), the GI50 (SK-MEL-28) was 19.7 µM (inactive), the GI50 (OVCAR-4) was 13.2 µM (inactive) and the GI50 (HT-29) was 18.8 µM (inactive). The GI50 (UACC-62) was 13.4 µM (inactive), the GI50 (CAKI-1) was 19.1 µM (inactive) and the GI50 (SF-295) was 18.1 µM (inactive). For the same molecule, the GI50 (HCT-15) was 19.3 µM, the GI50 (SK-MEL-2) was 20.5 µM (inactive) and the GI50 (NCI-H522) was 16.7 µM (inactive). The GI50 (DU-145) was 20.5 µM (inactive), the GI50 (HCC 2998) was 16.3 µM (inactive) and the GI50 (SK-MEL-5) was 21.6 µM (inactive). The GI50 (SNB-19) was 16 µM (inactive), the GI50 (EKVX) was 20.2 µM (inactive) and the GI50 (NCI-H226) was 16.6 µM (inactive). For the same molecule, the GI50 (MDA-N) was 18.5 µM (inactive), the GI50 (SNB-75) was 13.7 µM (inactive) and the GI50 (Hs-578T) was 21.8 µM (inactive). For the same molecule, the GI50 (IGROV-1) was 17.5 µM (inactive), the GI50 (UACC-257) was 19.2 µM (inactive) and the GI50 (Malme-3M) was 20 µM (inactive). For the same molecule, the GI50 (A549) was 16.6 µM (inactive), the GI50 (HL-60) was 15.5 µM (inactive) and the GI50 (ACHN) was 16.7 µM (inactive). The GI50 (OVCAR-8) was 16 µM (inactive), the GI50 (BT-549) was 24.9 µM (inactive) and the GI50 (SF-268) was 17.2 µM (inactive). For the same molecule, the GI50 (COLO 205) was 20.2 µM (inactive), the GI50 (SN12C) was 17.9 µM (inactive) and the GI50 (CCRF-CEM) was 24.9 µM (inactive). The GI50 (M14) was 14.1 µM (inactive), the GI50 (OVCAR-5) was 19.5 µM (inactive) and the GI50 (786-0) was 18 µM (inactive). For the same molecule, the GI50 (LOX IMVI) was 14.5 µM (inactive), the GI50 (HOP-92) was 18.1 µM (inactive) and the GI50 (RPMI-8226) was 23 µM (inactive). The GI50 (HCT-116) was 17.8 µM (inactive), the GI50 (MDA-MB-231) was 21.2 µM (inactive) and the GI50 (SW-620) was 19.6 µM (inactive). The GI50 (KM12) was 15 µM (inactive), the GI50 (HOP-62) was 24.6 µM (inactive) and the GI50 (TK-10) was 19.1 µM (inactive). For the same molecule, the GI50 (MDA-MB-435) was 16.4 µM (inactive), the GI50 (OVCAR-3) was 16.9 µM (inactive) and the GI50 (NCI-H23) was 16.9 µM (inactive). The GI50 (U-251) was 18 µM (inactive), the GI50 (PC-3) was 13.9 µM (inactive) and the GI50 (SR) was 22.3 µM (inactive). For the same molecule, the GI50 (T47D) was 13.7 µM (inactive), the GI50 (UO-31) was 17 µM (inactive) and the GI50 (SF-539) was 19.9 µM (inactive). The GI50 (K562) was 17.8 µM (inactive), the GI50 (SK-OV-3) was 23 µM (inactive) and the GI50 (MOLT-4) was 19.6 µM (inactive). For the same molecule, the GI50 (NCI/ADR-RES) was 20.6 µM (inactive), the GI50 (MCF7) was 16.8 µM (inactive) and the GI50 (A498) was 17.7 µM (inactive). For the same molecule, the GI50 (NCI-H460) was 18.6 µM (inactive).

For CCOc1ccc(/N=N/C2C(=O)N(C(=O)CC(=O)Nc3ccccc3OC)N=C2C)cc1 (stereo not given), the GI50 (SK-MEL-28) was > 100 µM (inactive), the GI50 (OVCAR-4) was > 19.7 µM (inactive) and the GI50 (HT-29) was 4.13 µM (inactive). The GI50 (UACC-62) was > 44.3 µM (inactive), the GI50 (CAKI-1) was > 36.7 µM (inactive) and the GI50 (SF-295) was > 36.6 µM (inactive). For the same molecule, the GI50 (HCT-15) was 14.5 µM, the GI50 (RXF 393) was 12.5 µM (inactive) and the GI50 (SK-MEL-2) was > 38.2 µM (inactive). For the same molecule, the GI50 (NCI-H522) was 11 µM (inactive), the GI50 (DU-145) was > 77.6 µM (inactive) and the GI50 (HCC 2998) was > 21.7 µM (inactive). The GI50 (SK-MEL-5) was 32.3 µM (inactive), the GI50 (NCI-H226) was > 52.1 µM (inactive) and the GI50 (MDA-N) was 2.52 µM (inactive). For the same molecule, the GI50 (SNB-75) was 0.916 µM (active), the GI50 (Hs-578T) was 2.85 µM (inactive) and the GI50 (IGROV-1) was 5.43 µM (inactive). The GI50 (UACC-257) was > 74.3 µM (inactive), the GI50 (Malme-3M) was 21.1 µM (inactive) and the GI50 (A549) was > 43.3 µM (inactive). For the same molecule, the GI50 (HL-60) was 4.17 µM (inactive), the GI50 (ACHN) was > 100 µM (inactive) and the GI50 (OVCAR-8) was 59.8 µM (inactive). For the same molecule, the GI50 (BT-549) was 13.2 µM (inactive), the GI50 (SF-268) was > 42.8 µM (inactive) and the GI50 (COLO 205) was > 100 µM (inactive). The GI50 (SN12C) was > 100 µM (inactive), the GI50 (CCRF-CEM) was > 100 µM (inactive) and the GI50 (M14) was 25.5 µM (inactive). The GI50 (OVCAR-5) was > 100 µM (inactive), the GI50 (786-0) was > 39.1 µM (inactive) and the GI50 (LOX IMVI) was 29.7 µM (inactive). The GI50 (HOP-92) was > 32.4 µM (inactive), the GI50 (RPMI-8226) was 45 µM (inactive) and the GI50 (HCT-116) was 8.63 µM (inactive). The GI50 (MDA-MB-231) was > 36.5 µM (inactive), the GI50 (SW-620) was 8 µM (inactive) and the GI50 (KM12) was 4.35 µM (inactive). The GI50 (HOP-62) was > 33.4 µM (inactive), the GI50 (TK-10) was > 33.1 µM (inactive) and the GI50 (MDA-MB-435) was 1.93 µM (inactive). For the same molecule, the GI50 (OVCAR-3) was 8.83 µM (inactive), the GI50 (NCI-H23) was 38 µM (inactive) and the GI50 (U-251) was > 36 µM (inactive). The GI50 (PC-3) was > 100 µM (inactive), the GI50 (T47D) was > 65 µM (inactive) and the GI50 (UO-31) was > 71.1 µM (inactive). For the same molecule, the GI50 (SF-539) was 7.83 µM (inactive), the GI50 (K562) was 13.2 µM (inactive) and the GI50 (SK-OV-3) was > 37.2 µM (inactive). The GI50 (MOLT-4) was > 22.3 µM (inactive), the GI50 (NCI/ADR-RES) was 30 µM (inactive) and the GI50 (MCF7) was 6.61 µM (inactive). For the same molecule, the GI50 (A498) was > 30.1 µM (inactive) and the GI50 (NCI-H460) was 13.8 µM (inactive).

With CSc1ncnc2c1ncn2C1CC(Oc2ccc(C)cc2)C(COc2ccc(C)cc2)O1 (stereo not given) the GI50 (SK-MEL-28) was > 100 µM (inactive), the GI50 (OVCAR-4) was > 100 µM (inactive) and the GI50 (HT-29) was > 100 µM (inactive). The GI50 (UACC-62) was > 100 µM (inactive), the GI50 (CAKI-1) was 24.7 µM (inactive) and the GI50 (SF-295) was > 100 µM (inactive). For the same molecule, the GI50 (HCT-15) was greater than 100 µM, the GI50 (SK-MEL-2) was > 100 µM (inactive) and the GI50 (NCI-H522) was > 100 µM (inactive). For the same molecule, the GI50 (DU-145) was > 100 µM (inactive), the GI50 (HCC 2998) was > 100 µM (inactive) and the GI50 (SK-MEL-5) was 52.2 µM (inactive). For the same molecule, the GI50 (SNB-19) was > 100 µM (inactive), the GI50 (EKVX) was > 100 µM (inactive) and the GI50 (NCI-H226) was > 100 µM (inactive). The GI50 (MDA-N) was > 100 µM (inactive), the GI50 (SNB-75) was > 100 µM (inactive) and the GI50 (Hs-578T) was > 100 µM (inactive). For the same molecule, the GI50 (IGROV-1) was > 100 µM (inactive), the GI50 (UACC-257) was > 100 µM (inactive) and the GI50 (Malme-3M) was > 100 µM (inactive). The GI50 (A549) was > 100 µM (inactive), the GI50 (HL-60) was > 100 µM (inactive) and the GI50 (ACHN) was > 100 µM (inactive). For the same molecule, the GI50 (OVCAR-8) was > 100 µM (inactive), the GI50 (BT-549) was > 100 µM (inactive) and the GI50 (SF-268) was > 100 µM (inactive). The GI50 (COLO 205) was > 100 µM (inactive), the GI50 (SN12C) was > 100 µM (inactive) and the GI50 (CCRF-CEM) was > 100 µM (inactive). For the same molecule, the GI50 (M14) was > 100 µM (inactive), the GI50 (OVCAR-5) was > 100 µM (inactive) and the GI50 (786-0) was > 100 µM (inactive). The GI50 (LOX IMVI) was > 100 µM (inactive), the GI50 (HOP-92) was > 100 µM (inactive) and the GI50 (RPMI-8226) was 9.66 µM (inactive). The GI50 (HCT-116) was > 100 µM (inactive), the GI50 (MDA-MB-231) was > 100 µM (inactive) and the GI50 (SW-620) was > 100 µM (inactive). For the same molecule, the GI50 (KM12) was > 100 µM (inactive), the GI50 (HOP-62) was > 100 µM (inactive) and the GI50 (TK-10) was > 100 µM (inactive). The GI50 (MDA-MB-435) was > 100 µM (inactive), the GI50 (OVCAR-3) was > 100 µM (inactive) and the GI50 (NCI-H23) was 49.4 µM (inactive). For the same molecule, the GI50 (U-251) was > 100 µM (inactive), the GI50 (PC-3) was > 100 µM (inactive) and the GI50 (SR) was 76.6 µM (inactive). For the same molecule, the GI50 (T47D) was 16.6 µM (inactive), the GI50 (SF-539) was > 100 µM (inactive) and the GI50 (SK-OV-3) was > 100 µM (inactive). For the same molecule, the GI50 (MOLT-4) was 6.1 µM (inactive), the GI50 (NCI/ADR-RES) was > 100 µM (inactive) and the GI50 (MCF7) was > 100 µM (inactive). The GI50 (A498) was > 100 µM (inactive) and the GI50 (NCI-H460) was > 100 µM (inactive).
